Measurements taken from patent US9029337B2, “Modulation of factor 7 expression” (Isis Pharmaceuticals, Inc., priority 2007, dated 2015).
Strand notation (5' to 3'): a small letter for the sugar, then the base; units joined by * are phosphorothioate-linked, units joined directly phosphodiester-linked; [ ] holds rarer units or linkages, { } end groups; capitals alone tell only the bases. e = 2'-O-(2-methoxyethyl) (MOE); [5mC] = 5-methylcytosine; d = 2'-deoxy (DNA)

Test system: human Factor 7 mRNA
Assay: Antisense inhibition of human Factor 7 mRNA in HepB3 cells, 50 nM antisense oligonucleotide, lipofectin
Type: cell-based
Settings: lipofectin, 50 nM antisense oligonucleotide, approximately 24 hours, Factor 7 mRNA by real-time RT-PCR (RTS 2927), relative to untreated control
Method in brief: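 Percent inhibition, untreated cells as reference: derived from RNA collected about 24 hours post-transfection of 4,000-cell wells, with the human RTS 2927 primer probe set and adjustment for total RNA content (RIBOGREEN®).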

Substance	% Inhibition
416515 (antisense eT*eA*eG*eG*e[5mC]*dA*dT*dG*dA*d[5mC]*d[5mC]*dA*dT*d[5mC]*d[5mC]*eT*e[5mC]*eA*eA*eT) [compound 416515]	39%
416516 (antisense eG*eT*eG*eA*eG*dA*dA*dT*dA*d[5mC]*dA*dA*d[5mC]*dA*dG*eA*eT*eG*eA*eG) [compound 416516]	24%
416517 (antisense eG*eG*eG*eT*eG*d[5mC]*dA*dG*dT*dA*dG*d[5mC]*dA*dG*dA*eT*eG*e[5mC]*eA*eA) [compound 416517]	23%
416518 (antisense eG*eG*eG*eT*eG*dA*d[5mC]*d[5mC]*dA*d[5mC]*dA*d[5mC]*dA*dT*dT*eT*e[5mC]*e[5mC]*eT*eG) [compound 416518]	55%
416519 (antisense eA*eA*eA*eT*eA*dT*dG*dG*dG*dA*d[5mC]*d[5mC]*d[5mC]*dA*dA*eA*eG*eT*eG*eG) [compound 416519]	9%
416520 (antisense e[5mC]*e[5mC]*e[5mC]*eT*e[5mC]*dT*dG*d[5mC]*dA*dA*dA*dT*dA*dT*dG*eG*eG*eA*e[5mC]*e[5mC]) [compound 416520]	14%
416521 (antisense e[5mC]*eA*e[5mC]*e[5mC]*e[5mC]*d[5mC]*dA*d[5mC]*d[5mC]*dA*dG*dG*dT*dT*dG*eT*eG*e[5mC]*eA*e[5mC]) [compound 416521]	36%
416522 (antisense eG*eG*e[5mC]*eT*eG*dA*dG*dA*dA*dT*dT*dG*d[5mC]*d[5mC]*d[5mC]*eA*eG*eG*eG*e[5mC]) [compound 416522]	25%
416523 (antisense eT*e[5mC]*eT*e[5mC]*eG*dA*dG*dG*dG*d[5mC]*dT*dG*dA*dG*dA*eA*eT*eT*eG*e[5mC]) [compound 416523]	18%
416524 (antisense eT*eA*eA*eT*eT*dT*dA*dA*dT*dA*dT*dT*d[5mC]*dA*dG*eA*eT*eG*eG*eT) [compound 416524]	0%
416525 (antisense eT*eA*eT*eG*eA*dG*dT*d[5mC]*d[5mC]*dT*dT*d[5mC]*dT*dA*dG*eT*eG*eA*eA*eT) [compound 416525]	5%
416526 (antisense eT*eG*eT*e[5mC]*e[5mC]*dA*d[5mC]*dA*dT*dG*dA*d[5mC]*d[5mC]*d[5mC]*d[5mC]*eA*e[5mC]*eA*eG*eG) [compound 416526]	19%
416527 (antisense eG*eA*eG*e[5mC]*eT*dT*d[5mC]*d[5mC]*d[5mC]*dA*dA*dG*dT*dT*dG*eG*e[5mC]*eA*eG*eT) [compound 416527]	49%
416528 (antisense eT*eG*eA*eT*eA*dA*dA*dA*d[5mC]*d[5mC]*dT*d[5mC]*dT*dG*dG*eA*e[5mC]*eA*e[5mC]*e[5mC]) [compound 416528]	10%
416529 (antisense eG*eG*eG*e[5mC]*eT*dG*dA*dG*dA*d[5mC]*dT*dG*dA*dG*dG*eT*e[5mC]*eA*eG*e[5mC]) [compound 416529]	18%
416530 (antisense eA*eG*eG*eG*eT*dA*dG*d[5mC]*d[5mC]*dT*dT*dT*dG*d[5mC]*d[5mC]*eT*eT*eG*eG*e[5mC]) [compound 416530]	35%
416531 (antisense eA*eG*eA*eT*eG*dA*d[5mC]*d[5mC]*dA*dG*d[5mC]*dA*dG*dG*dA*eA*eG*e[5mC]*e[5mC]*eT) [compound 416531]	19%
416532 (antisense eG*eG*eA*e[5mC]*e[5mC]*d[5mC]*dA*dG*dA*dT*dG*dA*d[5mC]*d[5mC]*dA*eG*e[5mC]*eA*eG*eG) [compound 416532]	12%
416533 (antisense eG*e[5mC]*eA*eT*eT*d[5mC]*dT*dG*dG*dA*d[5mC]*d[5mC]*d[5mC]*dA*dG*eA*eT*eG*eA*e[5mC]) [compound 416533]	41%
416534 (antisense eA*eT*eG*e[5mC]*eA*d[5mC]*dA*d[5mC]*d[5mC]*dA*dG*dG*dG*d[5mC]*dT*eG*e[5mC]*eT*eG*eG) [compound 416534]	32%
416535 (antisense eG*e[5mC]*eA*eG*eG*dA*dT*dG*d[5mC]*dA*d[5mC]*dA*d[5mC]*d[5mC]*dA*eG*eG*eG*e[5mC]*eT) [compound 416535]	47%
416536 (antisense e[5mC]*eG*eG*eG*eA*dA*dG*dG*d[5mC]*d[5mC]*dT*dG*d[5mC]*d[5mC]*d[5mC]*eT*eG*e[5mC]*eA*eG) [compound 416536]	23%
416537 (antisense eT*eG*eA*e[5mC]*e[5mC]*dA*d[5mC]*dT*d[5mC]*dT*dT*d[5mC]*d[5mC]*dG*dA*eG*e[5mC]*eA*eG*e[5mC]) [compound 416537]	55%

Substance	% Inhibition
416538 (antisense e[5mC]*eG*eT*eG*eG*dA*d[5mC]*dT*dG*dA*dT*d[5mC]*d[5mC]*dA*dA*eA*eG*eG*eA*e[5mC]) [compound 416538]	46%
416539 (antisense eG*eA*e[5mC]*eA*eG*dA*dG*d[5mC]*d[5mC]*dT*dG*dA*dG*d[5mC]*dT*eT*eG*eG*e[5mC]*eA) [compound 416539]	53%
416540 (antisense eG*eG*eA*e[5mC]*eT*dG*dG*dT*dG*dT*d[5mC]*dA*dT*d[5mC]*dT*eG*eG*eG*eA*e[5mC]) [compound 416540]	38%
416541 (antisense e[5mC]*e[5mC]*eA*e[5mC]*e[5mC]*d[5mC]*dT*dT*dG*dG*dT*dG*d[5mC]*d[5mC]*d[5mC]*eA*eG*eA*eT*e[5mC]) [compound 416541]	53%
416542 (antisense e[5mC]*eA*eG*eG*eG*dT*dG*d[5mC]*d[5mC]*d[5mC]*dA*dT*d[5mC]*d[5mC]*dT*eA*eG*eT*e[5mC]*eA) [compound 416542]	56%
416543 (antisense eT*e[5mC]*e[5mC]*eT*eG*d[5mC]*dG*dA*dG*dT*dG*dG*dG*dA*dG*eT*eT*eG*eG*eA) [compound 416543]	0%
416544 (antisense eA*eT*e[5mC]*e[5mC]*e[5mC]*dA*dT*dT*dT*dT*d[5mC]*d[5mC]*d[5mC]*dA*dG*eG*eA*eG*e[5mC]*e[5mC]) [compound 416544]	58%
416545 (antisense eA*eG*eA*eA*eA*d[5mC]*dA*dT*d[5mC]*d[5mC]*d[5mC]*dA*dT*dT*dT*eT*e[5mC]*e[5mC]*e[5mC]*eA) [compound 416545]	8%
416546 (antisense e[5mC]*e[5mC]*eA*eG*eG*d[5mC]*dT*dG*dG*dT*dT*dT*dG*dG*dA*eG*eA*eA*eA*e[5mC]) [compound 416546]	21%
416547 (antisense eA*eT*eG*eA*eA*dA*dT*dT*d[5mC]*dT*dA*d[5mC]*d[5mC]*dT*dA*eA*eA*eG*eA*eT) [compound 416547]	0%
416548 (antisense eA*eG*eG*eT*eG*dA*dA*dT*dG*dA*dA*dA*dT*dT*d[5mC]*eT*eA*e[5mC]*e[5mC]*eT) [compound 416548]	29%
416550 (antisense eT*eG*eG*e[5mC]*eT*dG*dG*d[5mC]*dT*dG*dA*dG*dG*dA*dG*eA*e[5mC]*eA*eA*eT) [compound 416550]	55%
416551 (antisense e[5mC]*eA*eG*eA*eA*dA*d[5mC]*dA*d[5mC]*d[5mC]*d[5mC]*dA*dT*d[5mC]*d[5mC]*eT*e[5mC]*eT*eG*eA) [compound 416551]	19%
416552 (antisense eT*e[5mC]*eT*eG*e[5mC]*dA*d[5mC]*dA*dG*dG*dG*dT*dA*dG*dA*e[5mC]*e[5mC]*e[5mC]*eT*e[5mC]) [compound 416552]	46%
416553 (antisense eG*eG*eT*eT*e[5mC]*dT*d[5mC]*dT*dG*d[5mC]*dA*d[5mC]*dA*dG*dG*eG*eT*eA*eG*eA) [compound 416553]	56%
416554 (antisense eA*eA*eA*eG*eA*dT*d[5mC]*d[5mC]*d[5mC]*dA*d[5mC]*d[5mC]*dT*d[5mC]*dA*eA*eA*eG*eA*eG) [compound 416554]	7%
416555 (antisense eA*eA*eA*eG*eA*dT*d[5mC]*dA*dG*dG*d[5mC]*dA*dA*dA*dG*eA*eT*e[5mC]*e[5mC]*e[5mC]) [compound 416555]	6%
416556 (antisense eA*eT*eA*eG*e[5mC]*dT*dT*dT*dG*dA*dT*d[5mC]*d[5mC]*dA*dA*eT*eG*e[5mC]*eT*e[5mC]) [compound 416556]	53%
416557 (antisense eT*e[5mC]*e[5mC]*e[5mC]*eA*dG*dG*d[5mC]*dA*dA*dA*dG*d[5mC]*dT*dG*e[5mC]*eT*e[5mC]*eA*eG) [compound 416557]	56%
416558 (antisense eT*eG*eA*e[5mC]*eA*dG*d[5mC]*dA*d[5mC]*dG*dA*dA*dG*d[5mC]*d[5mC]*e[5mC]*eA*eG*eA*eG) [compound 416558]	19%
416559 (antisense eG*e[5mC]*e[5mC]*eA*eT*dT*dT*d[5mC]*dT*dA*dG*dG*dT*d[5mC]*dT*eG*e[5mC]*eA*eG*eG) [compound 416559]	25%
416560 (antisense eT*eA*eA*eA*eA*d[5mC]*dT*dT*dT*dA*dT*dT*dT*dA*d[5mC]*eA*eA*eG*eA*eG) [compound 416560]	0%
